In patent publication US20100267774A1, “P38 MAP KINASE INHIBITORS” (CHROMA THERAPEUTICS LTD., priority 2007, published 2010):
Read-outs that look alike come from different tables or passages of the source.

What was measured:
p38 MAP Kinase a = target: T1, p38 MAP Kinase a (Homo sapiens, UniProt Q16539); test: p38 MAP Kinase activity, radiometric filter-binding assay (Upstate); assay type: biochemical
T1 construct: purchased Upstate (Dundee UK)

[1] = system: phosphorylation of MAPKAP-2 in HUT 78 cells; test: Cellular assay for the phosphorylation of MAPKAP-2 by p38 in HUT 78 cells; assay type: cell-based; conditions: for IC50: Homo sapiens, HuT78, non-macrophage cell line HUT 78, anisomycin 10 μM, read-out: Inhibition of phosphorylation of MAPKAP-2 in HUT 78 cells (IC50); for Ratio IC50s in HUT 78 to U937 cells: macrophage selectivity
Protocol: U937 or HUT78 cells were plated in RPMI 1640, and were incubated at 37° C., 5% CO2 for 18 hours. 10 mM stocks of compounds were diluted media/0.1% DMSO to give a log or semi-log dilution series. The wells for ‘no treatment’ and ‘anisomycin’ were treated with 0.1% DMSO only. The cells were incubated at 37° C., 5% CO2 for a further 4 hours. Anisomycin was added to all wells except ‘no treatment’ at a final concentration of 10 μM. The cells were incubated at 37° C., 5% CO2 for 30 minutes before harvest. Plates were stood on ice whilst harvesting, and all the following steps were carried out at 4° C. The cells were pelleted at 1000 rpm for 10 minutes at 4° C., the media aspirated, and the pellet washed with cold PBS. The pellets were lysed in 120 μl of SDS lysis buffer (62.5 mM Tris, pH 6.8, 2% SDS, 10% glycerol, 50 mM DTT, with protease inhibitors and phosphatase inhibitors added according to the manufacturers' recommendations). After 30 minutes on ice, the samples were sonicated for 5 seconds before centrifugation at 13,000 rpm 4° C. for 10 minutes to remove cell debris. 10 μl of the resulting gel samples were loaded per lane on NOVEX 4-12% Bis-Tris MOPS gels. Membranes from western transfer of gels were blotted with anti-phospho MAPKAP-2, anti-phospho HSP27 and anti-GAPDH according to the manufacturers' instructions. Signal was visualised using HRP-linked anti-rabbit or anti-mouse antibodies, ECL reagent and ECL film. IC50 values for the various compounds were visualised from the resulting photographic images, using both band-shift and signal intensity.
In cells, p38 activity leads to the phosphorylation of the protein MAPKAP-2 and thus one method to assess the inhibition of p38 inside cells is to look at the decrease in the levels of phosphorylated MAPKAP-2. Table 1 lists the IC50s as measured by the level of MAPKAP-2 phosphorylation in a macrophage cell line (U937) and non-macrophage cell line (HUT78). […] In contrast, example 33 that has an esterase motif that would be expected to confer macrophage selectivity, has an activity in the macrophage cell line (U937) which is 100 fold greater than in the non-macrophage cell line (HUT 78).

[2] = system: phosphorylation of MAPKAP-2 in U937 cells; test: Cellular assay for the phosphorylation of MAPKAP-2 by p38 in U937 cells; assay type: cell-based; conditions: Homo sapiens, U-937; macrophage cell line U937; anisomycin 10 μM; read-out: Inhibition of phosphorylation of MAPKAP-2 in U937 cells (IC50)
Protocol: U937 or HUT78 cells were plated in RPMI 1640, and were incubated at 37° C., 5% CO2 for 18 hours. 10 mM stocks of compounds were diluted media/0.1% DMSO to give a log or semi-log dilution series. The wells for ‘no treatment’ and ‘anisomycin’ were treated with 0.1% DMSO only. The cells were incubated at 37° C., 5% CO2 for a further 4 hours. Anisomycin was added to all wells except ‘no treatment’ at a final concentration of 10 μM. The cells were incubated at 37° C., 5% CO2 for 30 minutes before harvest. Plates were stood on ice whilst harvesting, and all the following steps were carried out at 4° C. The cells were pelleted at 1000 rpm for 10 minutes at 4° C., the media aspirated, and the pellet washed with cold PBS. The pellets were lysed in 120 μl of SDS lysis buffer (62.5 mM Tris, pH 6.8, 2% SDS, 10% glycerol, 50 mM DTT, with protease inhibitors and phosphatase inhibitors added according to the manufacturers' recommendations). […]
In cells, p38 activity leads to the phosphorylation of the protein MAPKAP-2 and thus one method to assess the inhibition of p38 inside cells is to look at the decrease in the levels of phosphorylated MAPKAP-2. Table 1 lists the IC50s as measured by the level of MAPKAP-2 phosphorylation in a macrophage cell line (U937) and non-macrophage cell line (HUT78). […]

THP-1 TNFα release = test: LPS-stimulation of THP-1 cells, TNF-α release by ELISA; assay type: cell-based; conditions: Homo sapiens, THP-1, 6 h; read-out: Inhibitor activity versus THP-1 TNFα release
Protocol: THP-1 cells were plated in 100 μl at a density of 4×10^4 cells/well in V-bottomed 96 well tissue culture treated plates and incubated at 37° C. in 5% CO2 for 16 hrs. 2 hrs after the addition of the inhibitor in 100 μl of tissue culture media, the cells were stimulated with LPS (E coli strain 005:B5, Sigma) at a final concentration of 1 μg/ml and incubated at 37° C. in 5% CO2 for 6 hrs. TNF-α levels were measured from cell-free supernatants by sandwich ELISA (R&D Systems #QTA00B).

[3] = compound as such (Example 33: Ester), read-out: Inhibition of P38α (IC50 nM)

T1 sequence (Q16539 whole entry): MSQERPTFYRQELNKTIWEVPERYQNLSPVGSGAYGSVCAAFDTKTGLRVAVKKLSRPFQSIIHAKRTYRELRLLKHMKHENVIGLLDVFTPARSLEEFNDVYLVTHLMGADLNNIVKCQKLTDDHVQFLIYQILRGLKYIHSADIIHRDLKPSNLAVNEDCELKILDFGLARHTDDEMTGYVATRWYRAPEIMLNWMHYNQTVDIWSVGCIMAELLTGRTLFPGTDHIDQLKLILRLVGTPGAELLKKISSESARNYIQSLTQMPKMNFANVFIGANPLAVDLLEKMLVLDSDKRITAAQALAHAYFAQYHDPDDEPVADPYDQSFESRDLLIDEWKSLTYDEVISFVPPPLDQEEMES

Structure (SMILES)	IC50 (p38 MAP Kinase a; [3]) [nM]	IC50 [1] [nM]	Ratio IC50s in HUT 78 to U937 cells ([1]; MAPKAP-2 phosphorylation)	IC50 [2] [nM]	IC50 (p38 MAP Kinase a; Acid (carboxylic acid of the ester), read-out: Inhibition of P38α (IC50 nM)) [nM]	IC50 (p38 MAP Kinase a; IC50 range, read-out: Inhibitor activity versus p38 MAPKa) [nM]	activity in the macrophage cell line (U937) greater than in the non-macrophage cell line (HUT 78) ([1]; MAPKAP-2 phosphorylation) [fold]	IC50 (THP-1 TNFα release) [nM]
Nc1c(C(=O)c2ccc(F)cc2F)ccc(=O)n1-c1c(F)cccc1F [Compound I, reference compound]	47	10	1.1	9	–	–	–	–
CC(C)C[C@H](NCCc1cc(F)c(-n2c(N)c(C(=O)c3ccc(F)cc3F)ccc2=O)c(F)c1)C(=O)OC1CCCC1 [Example 33, cyclopentyl N-(2-{4-[6-amino-5-(2,4-difluorobenzoyl)-2-oxopyridin-1(2H)-yl]-3,5-difluorophenyl}ethyl)-L-leucinate]	100	73	112	0.7	0.5	100 to 1000	100	< 100
